Reference: patent US9801956B2, “PSMA-targeted NIR dyes and their uses” (On Target Laboratories, LLC, priority 2015, dated 2017)

target: T1, PSMA (Homo sapiens, UniProt Q04609); experiment: Relative binding affinity of DUPA-NIR conjugates versus 100 nM DUPA-FITC (14) on PSMA-positive 22Rv1 human prostate cancer cells, flow cytometry; details: PSMA-positive 22Rv1 cells, 1 h at 37° C., 100 nM DUPA-FITC competitor
T1 construct: PSMA-positive 22Rv1 human prostate cancer cells; endogenous in cells; host or cells: 22Rv1 human prostate cancer cells
Protocol: (§1) FIG. 3—Relative binding affinities of DUPA-NIR conjugates 1-9 with respect to DUPA-FITC (14). PSMA-positive 22Rv1 human prostate cancer cells were incubated for 1 h at 37° C. in the presence of 100 nM DUPA-FITC with increasing concentrations of DUPA-NIR conjugates. […] Cell bound fluorescence was assayed as using flow cytometry.
as §1, with “6—Relative” for “3—Relative”, “with aromatic amino acids linkers” for “1-9”
as §1, with “14—Relative” for “3—Relative”, “conjugates” for “conjugates 1-9”
PSMA-positive 22Rv1 human prostate cancer cells were incubated for 1 h at 37° C. in the presence of 100 nM DUPA-FITC with increasing concentrations of DUPA-NIR conjugates. […] Cell bound fluorescence was assayed as using flow cytometry.
FIG. 23—Relative binding affinities of DUPA-NIR conjugates with respect to DUPA-FITC (14). […] Cell bound fluorescence was assayed as using flow cytometry.
FIG. 31—Relative binding affinities of DUPA-NIR conjugates with respect to DUPA-FITC (14). […] Cell bound fluorescence was assayed as using flow cytometry.
FIG. 36—Relative binding affinities of PSMA-targeted NIR conjugates with respect to DUPA-FITC (14). […] Cell bound fluorescence was assayed as using flow cytometry.
FIG. 3 Relative binding affinities of DUPA-NIR conjugates 1-9 with respect to DUPA-FITC (14). […] Cell bound fluorescence was assayed as using flow cytometry.
FIG. 24: Relative binding affinities of DUPA-NIR conjugates with respect to DUPA-FITC (14). […] Cell bound fluorescence was assayed as using flow cytometry. […]

T1 sequence (Q04609 whole entry): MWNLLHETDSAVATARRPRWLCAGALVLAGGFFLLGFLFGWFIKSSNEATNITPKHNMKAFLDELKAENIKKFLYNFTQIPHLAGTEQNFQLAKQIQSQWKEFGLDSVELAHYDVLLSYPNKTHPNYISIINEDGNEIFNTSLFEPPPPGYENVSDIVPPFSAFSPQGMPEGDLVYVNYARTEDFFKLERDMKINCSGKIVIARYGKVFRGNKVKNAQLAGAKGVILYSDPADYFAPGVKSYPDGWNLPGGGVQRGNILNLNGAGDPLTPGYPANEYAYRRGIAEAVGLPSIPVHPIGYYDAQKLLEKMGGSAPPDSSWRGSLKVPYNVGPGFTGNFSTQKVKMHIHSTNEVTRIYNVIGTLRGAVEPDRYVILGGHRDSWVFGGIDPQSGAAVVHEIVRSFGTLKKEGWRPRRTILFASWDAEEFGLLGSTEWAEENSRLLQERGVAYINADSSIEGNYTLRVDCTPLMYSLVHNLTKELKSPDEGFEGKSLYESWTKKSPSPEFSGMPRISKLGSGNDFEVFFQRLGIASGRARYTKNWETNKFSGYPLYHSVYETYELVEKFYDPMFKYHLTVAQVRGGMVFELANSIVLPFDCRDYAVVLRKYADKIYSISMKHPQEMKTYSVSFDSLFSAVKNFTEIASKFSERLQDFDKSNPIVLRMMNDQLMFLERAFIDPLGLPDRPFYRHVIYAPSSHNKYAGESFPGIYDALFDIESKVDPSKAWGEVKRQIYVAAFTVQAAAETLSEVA

| Kd [nM] | Structure (SMILES) |
| --- | --- |
| 141 | CC1(C)C(=CC=C2CCOC(C=CC3=[N+](CCCCS(=O)(=O)[O-])c4ccc(S(=O)(=O)O)cc4C3(C)C)=C2c2ccc(C(=O)NCCNC(=O)C(Cc3ccccc3)NC(=O)CCCCCCCNC(=O)CCC(NC(=O)NC(CCC(=O)O)C(=O)O)C(=O)O)cc2)N(CCCCS(=O)(=O)O)c2ccc(S(=O)(=O)O)cc21 (stereo not drawn) [Compound 62] |
| 319 | CC1(C)C(=CC=C2CCCC(C=CC3=[N+](CCCCS(=O)(=O)[O-])c4ccccc4C3(C)C)=C2SCC(NC(=O)C(Cc2ccccc2)NC(=O)C(Cc2ccccc2)NC(=O)CCCCCCCNC(=O)CCC(NC(=O)NC(CCC(=O)O)C(=O)O)C(=O)O)C(=O)O)N(CCCCS(=O)(=O)O)c2ccccc21 (stereo not drawn) [Compound 64] |
| 983 | CC1(C)C(=CC=C2CCCC(C=CC3=[N+](CCCCS(=O)(=O)[O-])c4ccccc4C3(C)C)=C2Oc2ccc(CC(NC(=O)C(CCCNC(=N)N)NC(=O)C(Cc3ccccc3)NC(=O)CCCCCCCNC(=O)CCC(NC(=O)NC(CCC(=O)O)C(=O)O)C(=O)O)C(=O)O)cc2)N(CCCCS(=O)(=O)O)c2ccccc21 (stereo not drawn) [Compound 65] |
